# In EP4559911A1, “NOVEL HETEROCYCLIC COMPOUND AND PHARMACEUTICAL COMPOSITION FOR INHIBITING AUTOTAXIN COMPRISING THE SAME” (Nextgen Bioscience Co., Ltd., priority 2022, dated 2024):
# Molecular target: human Autotaxin protein (Homo sapiens, UniProt Q13822)
# Assay: Evaluation of the inhibitory activity against human Autotaxin protein (18:1 LysoPC substrate, choline assay kit, absorbance at 570 nm)
# Type: biochemical
# Settings: compound at 500nM; 2 hours at 37 °C; % inhibition = (1 - absorbance test group / absorbance control group) X 100
# Description: Solutions of each compound synthesized (80 uM, 100% dimethyl sulfoxide) were sequentially diluted 5-fold with dimethyl sulfoxide to prepare 6 concentrations. Each concentration of the compound was diluted 2-fold with 1x test buffer (50 mM Tris-Cl (pH 8.0), 5 mM KCl, 1 mM CaCl2, 1 mM MgCl2, 140 mM NaCl, deionized water, 1 mg/mL BSA), and 1 uL (1.25% dimethyl sulfoxide) of this diluted mixture was dispensed into each well of a 96-well clear round-bottom plate. 9 uL of 1x test buffer was added, and 20 uL of 240 nM human autotaxin protein (buffer: 50 mM Tris-HCl, pH 8.0, with 150 mM sodium chloride and 20% glycerol) was added. 10 uL of sonicated 360 uM 18:1 LysoPC (diluted with 1x assay buffer) was added. The reaction was performed for 2 hours in a shaking incubator at 37 °C, and a secondary reaction mixture (choline assay kit, KA1662) (65 uL of 1x assay buffer: 1 uL of choline oxidase: 1 uL of dye probe) was prepared. 60 uL of the secondary reaction mixture was added to the plate where the reaction was performed, and incubated for 30 minutes in a shaker. The absorbance value was measured at a wavelength of 570 nm using a SpectraMax iD3 microplate reader. The percentage inhibition activity value (% inhibition) was calculated by the formula: (1 - absorbance value test group / absorbance value control group) X 100.
row,inhibition at 0.5 µM [%],Structure (SMILES)
1,14,"O=C(O)C1CN(c2nnc(-c3cnc(NC4Cc5cc(F)c(F)cc5C4)nc3)o2)C1 [Example 50, 1-(5-(2-((5,6-difluoro-2,3-dihydro-1H-inden-2-yl)amino)pyrimidin-5-yl)-1,3,4-oxadiazol-2-yl)azetidine-3-carboxylic acid]"
2,91.8,"CC1(c2c[nH]nn2)CN(c2nnc(-c3cnc(NC4Cc5cc(F)c(F)cc5C4)nc3)o2)C1 [Example 51, N-(5,6-difluoro-2,3-dihydro-1H-inden-2-yl)-5-(5-(3-methyl-3-(1H-1,2,3-triazol-4-yl)azetidin-1-yl)-1,3,4-oxadiazol-2-yl)pyrimidin-2-amine]"
3,21.9,"COC(=O)CC1CN(c2nnc(-c3cnc(NC4Cc5cc(F)c(F)cc5C4)nc3)o2)C1 [Example 52, Methyl 2-(1-(5-(2-((5,6-difluoro-2,3-dihydro-1H-inden-2-yl)amino)pyrimidin-5-yl)-1,3,4-oxadiazol-2-yl)azetidin-3-yl)acetate]"
4,24.7,"O=C(O)CC1CN(c2nnc(-c3cnc(NC4Cc5cc(F)c(F)cc5C4)nc3)o2)C1 [Example 53, 2-(1-(5-(2-((5,6-difluoro-2,3-dihydro-1H-inden-2-yl)amino)pyrimidin-5-yl)-1,3,4-oxadiazol-2-yl)azetidin-3-yl)acetic acid]"
5,23.4,"Fc1cc2c(cc1F)CC(Nc1ccc(-c3nnc(N4CC(c5c[nH]nn5)C4)o3)cn1)C2 [Example 54, 5-(5-(3-(1H-1,2,3-triazol-4-yl)azetidin-1-yl)-1,3,4-oxadiazol-2-yl)-N-(5,6-difluoro-2,3-dihydro-1H-inden-2-yl)pyridin-2-amine]"
6,17.6,"CS(=O)(=O)OC1CN(c2nnc(-c3cnc(NC4Cc5cc(F)c(F)cc5C4)nc3)o2)C1 [Example 55, 1-(5-(2-((5,6-difluoro-2,3-dihydro-1H-inden-2-yl)amino)pyrimidin-5-yl)-1,3,4-oxadiazol-2-yl)azetidin-3-yl methanesulfonate]"
7,85.2,"Fc1cc2c(cc1F)CC(Nc1ncc(-c3nnc(N4CC(F)(c5c[nH]nn5)C4)o3)cn1)C2 [Example 56, N-(5,6-difluoro-2,3-dihydro-1H-inden-2-yl)-5-(5-(3-fluoro-3-(1H-1,2,3-triazol-4-yl)azetidin-1-yl)-1,3,4-oxadiazol-2-yl)pyrimidin-2-amine]"
8,8.6,"N#CC1CN(c2nnc(-c3cnc(NC4Cc5cc(F)c(F)cc5C4)nc3)o2)C1 [Example 57, 1-(5-(2-((5,6-difluoro-2,3-dihydro-1H-inden-2-yl)amino)pyrimidin-5-yl)-1,3,4-oxadiazol-2-yl)azetidine-3-carbonitrile]"
9,1,"Fc1cc2c(cc1F)CC(Nc1ncc(-c3nnc(N4CC(c5nnc(C(F)(F)F)o5)C4)o3)cn1)C2 [Example 58, N-(5,6-difluoro-2,3-dihydro-1H-inden-2-yl)-5-(5-(3-(5-(trifluoromethyl)-1,3,4-oxadiazol-2-yl)azetidin-1-yl)-1,3,4-oxadiazol-2-yl)pyrimidin-2-amine]"
10,49.5,"Clc1cc(Cl)cc(CCNc2ncc(-c3nnc(N4CC(c5c[nH]nn5)C4)o3)cn2)c1 [Example 59, 5-(5-(3-(1H-1,2,3-triazol-4-yl)azetidin-1-yl)-1,3,4-oxadiazol-2-yl)-N-(3,5-dichlorophenethyl)pyrimidin-2-amine]"
11,1,"Fc1cc2c(cc1F)CC(Nc1cnc(-c3nnc(N4CC(c5c[nH]nn5)C4)o3)cn1)C2 [Example 60, 5-(5-(3-(1H-1,2,3-triazol-4-yl)azetidin-1-yl)-1,3,4-oxadiazol-2-yl)-N-(5,6-difluoro-2,3-dihydro-1H-inden-2-yl)pyrazin-2-amine]"
12,1,"Fc1cc2c(cc1F)CC(Nc1ncc(-c3nnc(N4CC(c5nnc(C(F)F)o5)C4)o3)cn1)C2 [Example 61, N-(5,6-difluoro-2,3-dihydro-1H-inden-2-yl)-5-(5-(3-(5-(difluoromethyl)-1,3,4-oxadiazol-2-yl)azetidin-1-yl)-1,3,4-oxadiazol-2-yl)pyrimidin-2-amine]"
13,1,"CC(C)(C)C(=O)OCn1cc(C2CN(c3nnc(-c4cnc(NC5Cc6ccc(Br)cc6C5)nc4)o3)C2)nn1 (stereo not drawn) [Example 62, (4-(1-(5-(2-((5-bromo-2,3-dihydro-1H-inden-2-yl)amino)pyrimidin-5-yl)-1,3,4-oxadiazol-2-yl)azetidin-3-yl)-1H-1,2,3-triazol-1-yl)methyl pivalate]"
14,1,"CC(C)(C)C(=O)OCn1cc(C2CN(c3nnc(-c4cnc(NC5Cc6ccc(F)cc6C5)nc4)o3)C2)nn1 (stereo not drawn) [Example 63, (4-(1-(5-(2-((5-fluoro-2,3-dihydro-1H-inden-2-yl)amino)pyrimidin-5-yl)-1,3,4-oxadiazol-2-yl)azetidin-3-yl)-1H-1,2,3-triazol-1-yl)methyl pivalate]"
15,100,"Brc1ccc2c(c1)CC(Nc1ncc(-c3nnc(N4CC(c5c[nH]nn5)C4)o3)cn1)C2 (stereo not drawn) [Example 64, 5-(5-(3-(1H-1,2,3-triazol-4-yl)azetidin-1-yl)-1,3,4-oxadiazol-2-yl)-N-(5-bromo-2,3-dihydro-1H-inden-2-yl)pyrimidin-2-amine]"
16,100,"Fc1ccc2c(c1)CC(Nc1ncc(-c3nnc(N4CC(c5c[nH]nn5)C4)o3)cn1)C2 (stereo not drawn) [Example 65, 5-(5-(3-(1H-1,2,3-triazol-4-yl)azetidin-1-yl)-1,3,4-oxadiazol-2-yl)-N-(5-fluoro-2,3-dihydro-1H-inden-2-yl)pyrimidin-2-amine]"
17,35.8,"O=c1[nH]nc(C2CN(c3nnc(-c4cnc(NC5Cc6cc(F)c(F)cc6C5)nc4)o3)C2)o1 [Example 66, 5-(1-(5-(2-((5,6-difluoro-2,3-dihydro-1H-inden-2-yl)amino)pyrimidin-5-yl)-1,3,4-oxadiazol-2-yl)azetidin-3-yl)-1,3,4-oxadiazol-2(3H)-one]"
18,74.7,"Cc1nc(NC2Cc3cc(F)c(F)cc3C2)ncc1-c1nnc(N2CC(c3c[nH]nn3)C2)o1 [Example 67, 5-(5-(3-(1H-1,2,3-triazol-4-yl)azetidin-1-yl)-1,3,4-oxadiazol-2-yl)-N-(5,6-difluoro-2,3-dihydro-1H-inden-2-yl)-4-methylpyrimidin-2-amine]"
19,17.6,"Fc1cc2c(cc1F)CC(Nc1ncc(-c3nnc(N4CC(c5nnn[nH]5)C4)o3)cn1)C2 [Example 68, 5-(5-(3-(1H-tetrazol-5-yl)azetidin-1-yl)-1,3,4-oxadiazol-2-yl)-N-(5,6-difluoro-2,3-dihydro-1H-inden-2-yl)pyrimidin-2-amine]"
20,95.4,"CC1(c2c[nH]nn2)CN(c2nnc(-c3cnc(NC4Cc5ccccc5C4)nc3)o2)C1 [Example 69, N-(2,3-dihydro-1H-inden-2-yl)-5-(5-(3-methyl-3-(1H-1,2,3-triazol-4-yl)azetidin-1-yl)-1,3,4-oxadiazol-2-yl)pyrimidin-2-amine]"
21,9.6,"COc1ccc2c(c1)CC(Nc1ncc(-c3nnc(N4CC(c5cn(COC(=O)C(C)(C)C)nn5)C4)o3)cn1)C2 (stereo not drawn) [Example 70, (4-(1-(5-(2-((5-methoxy-2,3-dihydro-1H-inden-2-yl)amino)pyrimidin-5-yl)-1,3,4-oxadiazol-2-yl)azetidin-3-yl)-1H-1,2,3-triazol-1-yl)methyl pivalate]"
22,95.5,"COc1ccc2c(c1)CC(Nc1ncc(-c3nnc(N4CC(c5c[nH]nn5)C4)o3)cn1)C2 (stereo not drawn) [Example 71, 5-(5-(3-(1H-1,2,3-triazol-4-yl)azetidin-1-yl)-1,3,4-oxadiazol-2-yl)-N-(5-methoxy-2,3-dihydro-1H-inden-2-yl)pyrimidin-2-amine]"
23,3.1,"CC(C)(C)C(=O)OCn1cc(C2CN(c3nnc(-c4cnc(NC5Cc6nccnc6C5)nc4)o3)C2)nn1 [Example 72, (4-(1-(5-(2-((6,7-dihydro-5H-cyclopenta[b]pyrazin-6-yl)amino)pyrimidin-5-yl)-1,3,4-oxadiazol-2-yl)azetidin-3-yl)-1H-1,2,3-triazol-1-yl)methyl pivalate]"
24,1.2,"CC(C)(C)C(=O)OCn1cc(C2CN(c3nnc(-c4cnc(NC5Cc6cccnc6C5)nc4)o3)C2)nn1 (stereo not drawn) [Example 73, (4-(1-(5-(2-((6,7-dihydro-5H-cyclopenta[b]pyridin-6-yl)amino)pyrimidin-5-yl)-1,3,4-oxadiazol-2-yl)azetidin-3-yl)-1H-1,2,3-triazol-1-yl)methyl pivalate]"
25,7.1,"c1cnc2c(n1)CC(Nc1ncc(-c3nnc(N4CC(c5c[nH]nn5)C4)o3)cn1)C2 [Example 74, N-(5-(5-(3-(1H-1,2,3-triazol-4-yl)azetidin-1-yl)-1,3,4-oxadiazol-2-yl)pyrimidin-2-yl)-6,7-dihydro-5H-cyclopenta[b]pyrazin-6-amine]"
26,84.6,"Cc1[nH]nnc1C1CN(c2nnc(-c3cnc(NC4Cc5cc(F)c(F)cc5C4)nc3)o2)C1 [Example 75, N-(5,6-difluoro-2,3-dihydro-1H-inden-2-yl)-5-(5-(3-(5-methyl-1H-1,2,3-triazol-4-yl)azetidin-1-yl)-1,3,4-oxadiazol-2-yl)pyrimidin-2-amine]"
27,64,"Fc1cc2c(cc1F)CC(Nc1ncc(-c3nnc(N4CC(c5c[nH]cn5)C4)o3)cn1)C2 [Example 76, 5-(5-(3-(1H-imidazol-4-yl)azetidin-1-yl)-1,3,4-oxadiazol-2-yl)-N-(5,6-difluoro-2,3-dihydro-1H-inden-2-yl)pyrimidin-2-amine]"
